Test results: patent publication US20130216533A1, “BIOLOGICAL MARKERS FOR IDENTIFYING PATIENTS FOR TREATMENT WITH VEGF ANTAGONISTS” (Genentech, Inc., priority 2012, published 2013)

Assays:
[1] = tested on: metastatic colorectal carcinoma (CRC); assay: NO16966 first-line metastatic CRC trial, PFS and OS stratified by 22-gene VDV signature; format: in vivo, human
Experimental: Sections from archival tumor samples from patients enrolled in the XELOX treatment arms of NO 16966 were evaluated by a pathologist and high tumor content area macro-dissected for subsequent RNA isolation using the FFPE RNA isolation kit (Roche; 7-10 sections per patient). RNA levels were assessed after cDNA synthesis following standard techniques, with the qPCR protocol on the Fluidigm Biomark platform according to the manufacturer's protocol.
Quantitative histological data from various animal experiments were plotted using Microsoft Excel software. Student's t test was applied to compare data sets of interest and differences with p values <0.05 were considered significant. 103 biopsies out of 1017 patients from the XELOX (capecitabine and oxaliplatin)-containing arm in the NO16966 trial were analyzed for the gene expression of VDV genes. qRT-PCR values were normalized by the housekeeping genes and relative to a universal reference sample to derive delta-delta Ct values. Subsequently, the delta-delta Ct value of each of the 22 VDV genes was mean centered and variance scaled to a Z-score.
For each sample i for which all of the VDV genes were analyzed, a VDV signature score (VDVi) was calculated. The VDVi represents a weighted average of z-scores across the analyzed VDV genes and is given by the algorithm:
wherein Zg,i is the standardized z-score of the qRT-PCR value for gene g of sample i and n, in this instance, is 22. The VDVi value provides quantitative information regarding the extent to which the expression of a particular set of genes is collectively overexpressed or underexpressed relative to a centered mean.
To compare the clinical outcomes (PFS and OS) between marker and/or treatment subgroups, log-rank tests and Cox regression were used, with median time calculated by the Kaplan-Meier analysis. All statistical tests were two-sided.
To test if VDV gene expression could correlate with clinical outcomes, we analyzed VDV gene expression levels in available pre-treatment archival tumor tissue from 103 patients (biomarker evaluable subpopulation) that were enrolled in the XELOX-containing arms. Due to the limited quality and amount of RNA from these clinical samples, gene expression was analyzed in a previously designed and validated “angiogenesis” Fluidigm qRT-PCR chip (FIG. 8B) that included 4 different housekeeping genes (for gene expression normalization), VEGF (as a control), and 22 representative proximal and distal VDV genes comprising: (i) pan-vascular markers such as CD31, CD34, and VE-CADH as indicators of MVD; (ii) key VEGF pathway components and proxVDV genes, including VEGFR-1, VEGFR-2, VEGFR-3, EPHRINB2, NRPs, ESM1, NID2, COL4a2, and LAMA4a; and (iii) additional VDV genes that are components of endothelial signaling pathways and potential modulators of VDV biology, including DLL-4, NOTCH1, ALK1, and EGFL7 (see FIG. 9A for validation of this compacted 22 VDV gene signature).
In these patients, the addition of bevacizumab to chemotherapy provided a statistically significant PFS (HR, 0.59; 95% CI, 0.37 to 0.93; p=0.024) and OS benefit (HR, 0.45; 95% CI, 0.23 to 0.85; p=0.015). […] We then tested the correlation between clinical outcomes and “high” or “low” pre-treatment gene expression. […] In contrast, in “VDV high” patients (FIG. 8D, solid lines), the addition of bevacizumab to chemotherapy vs chemotherapy alone provided a marked and significant PFS(HR, 0.36; 95% CI, 0.17 to 0.77; p=0.0079) and OS (HR, 0.31; 95% CI, 0.11 to 0.93; p=0.036) benefit. […] Thus, in this relatively small 103-patient sample set, the higher expression of a collective VDV gene subset correlates specifically with the improved clinical outcome provided by bevacizumab addition to chemotherapy, and has a predictive effect with respect to PFS.

[2] = tested on: VDV signature genes in Human Inflammatory Breast Cancer; settings: 19 inflammatory breast cancer patients; one dose as single agent; 21 days post-treatment; published micro-array data; cited from earlier work
[3] = tested on: metastatic colorectal carcinoma (CRC); settings: cited from earlier work
[4] = addition to oxaliplatin-based chemotherapy, Saltz et al. 2008

bevacizumab: recombinant humanized anti-VEGF monoclonal antibody generated according to Presta et al. (1997)
PFS HR ([1]; 103 biomarker evaluable patients, addition to chemotherapy (XELOX) vs chemotherapy, 95% CI 0.37 to 0.93, p=0.024): 0.59
OS HR ([1]; 103 biomarker evaluable patients, addition to chemotherapy (XELOX), 95% CI 0.23 to 0.85, p=0.015): 0.45
OS HR ([1]; "VDV high" patients, 95% CI 0.11 to 0.93, p=0.036): 0.31
PFS HR ([1]; "VDV high" patients, addition to chemotherapy vs chemotherapy alone, 95% CI 0.17 to 0.77, p=0.0079): 0.36
OS HR ([1]; "VDV low" patients, 95% CI 0.25 to 1.33, p=0.2): 0.58
PFS HR ([1]; "VDV low" patients, combination with chemotherapy vs chemotherapy alone, 95% CI 0.47 to 1.62, p=0.67): 0.88
VDV transcripts post-treatment vs pre-treatment biopsies [2]: clear down regulation of VDV transcripts
OS differences (secondary endpoint), whole NO16966 study [3, 4]: did not reach statistical significance
PFS (primary endpoint), whole NO16966 study [3, 4]: significantly improved
PFS and OS in metastatic CRC ([3]; in combination with chemotherapy, Hurwitz et al. 2004): increase progression free survival (PFS) and overall survival (OS)
